Results as given in US6352958B1, “Cycloimido-substituted benzofused heterocyclic herbicides” (FMC Corporation, priority 1997, dated 2002).

What was measured:
Format in all cases: in vivo
[1] = system: soybean (Glycine max var. Winchester); assay: Postemergence herbicidal activity, soybean; conditions: rate of application 0.3 Kg/Ha, rated after 12-17 days
[2] = system: field corn (Zea mays var. Pioneer 3732); assay: Postemergence herbicidal activity, corn; conditions: rate of application 0.3 Kg/Ha, rated after 12-17 days
[3] = system: morningglory (Ipomea lacunosa or Ipomea hederacea); assay: Postemergence herbicidal activity, morningglory; conditions: rate of application 0.3 Kg/Ha, rated after 12-17 days
[4] = system: common chickweed (Stellaria media); assay: Preemergence herbicidal activity, chickweed; conditions: Rate of Application 0.3 Kg/Ha, examined after 12-17 days
[5] = system: soybean (Glycine max var. Winchester); assay: Preemergence herbicidal activity, soybean; conditions: Rate of Application 0.3 Kg/Ha, examined after 12-17 days
[6] = system: Johnsongrass (Sorghum halepense); assay: Postemergence herbicidal activity, johnsongrass; conditions: rate of application 0.3 Kg/Ha, rated after 12-17 days
[7] = system: wheat (Triticum aestivum var. Lew); assay: Preemergence herbicidal activity, wheat; conditions: Rate of Application 0.3 Kg/Ha, examined after 12-17 days
[8] = system: velvetleaf (Abutilon theophrasti); assay: Postemergence herbicidal activity, velvetleaf; conditions: rate of application 0.3 Kg/Ha, rated after 12-17 days
[9] = system: common cocklebur (Xanthium strumarium L.); assay: Postemergence herbicidal activity, cocklebur; conditions: rate of application 0.3 Kg/Ha, rated after 12-17 days
[10] = system: morningglory (Ipomea lacunosa or Ipomea hederacea); assay: Preemergence herbicidal activity, morningglory; conditions: Rate of Application 0.3 Kg/Ha, examined after 12-17 days
[11] = system: green foxtail (Setaria viridis); assay: Postemergence herbicidal activity, green foxtail; conditions: rate of application 0.3 Kg/Ha, rated after 12-17 days
[12] = system: field corn (Zea mays var. Pioneer 3732); assay: Preemergence herbicidal activity, corn; conditions: Rate of Application 0.3 Kg/Ha, examined after 12-17 days
[13] = system: common chickweed (Stellaria media); assay: Postemergence herbicidal activity, chickweed; conditions: rate of application 0.3 Kg/Ha, rated after 12-17 days
[14] = system: blackgrass (Aloepecurus myosuroides); assay: Preemergence herbicidal activity, blackgrass; conditions: Rate of Application 0.3 Kg/Ha, examined after 12-17 days
[15] = system: green foxtail (Setaria viridis); assay: Preemergence herbicidal activity, green foxtail; conditions: Rate of Application 0.3 Kg/Ha, examined after 12-17 days
[16] = system: wheat (Triticum aestivum var. Lew); assay: Postemergence herbicidal activity, wheat; conditions: rate of application 0.3 Kg/Ha, rated after 12-17 days
[17] = system: blackgrass (Aloepecurus myosuroides); assay: Postemergence herbicidal activity, blackgrass; conditions: rate of application 0.3 Kg/Ha, rated after 12-17 days
[18] = system: common cocklebur (Xanthium strumarium L.); assay: Preemergence herbicidal activity, cocklebur; conditions: Rate of Application 0.3 Kg/Ha, examined after 12-17 days
[19] = system: velvetleaf (Abutilon theophrasti); assay: Preemergence herbicidal activity, velvetleaf; conditions: Rate of Application 0.3 Kg/Ha, examined after 12-17 days
[20] = system: Johnsongrass (Sorghum halepense); assay: Preemergence herbicidal activity, johnsongrass; conditions: Rate of Application 0.3 Kg/Ha, examined after 12-17 days

Compound | Postemergence herbicidal activity (% control) SOY [1] | Postemergence herbicidal activity (% control) CRN [2] | Postemergence herbicidal activity (% control) IPOSS [3] | PREEMERGENCE HERBICIDAL ACTIVITY (% CONTROL) STEME [4] | PREEMERGENCE HERBICIDAL ACTIVITY (% CONTROL) SOY [5] | Postemergence herbicidal activity (% control) SORHA [6] | PREEMERGENCE HERBICIDAL ACTIVITY (% CONTROL) WHT [7] | Postemergence herbicidal activity (% control) ABUTH [8] | Postemergence herbicidal activity (% control) XANPE [9] | PREEMERGENCE HERBICIDAL ACTIVITY (% CONTROL) IPOSS [10] | Postemergence herbicidal activity (% control) SETVI [11] | PREEMERGENCE HERBICIDAL ACTIVITY (% CONTROL) CRN [12] | Postemergence herbicidal activity (% control) STEME [13] | PREEMERGENCE HERBICIDAL ACTIVITY (% CONTROL) ALOMY [14] | PREEMERGENCE HERBICIDAL ACTIVITY (% CONTROL) SETVI [15] | Postemergence herbicidal activity (% control) WHT [16] | Postemergence herbicidal activity (% control) ALOMY [17] | PREEMERGENCE HERBICIDAL ACTIVITY (% CONTROL) XANPE [18] | PREEMERGENCE HERBICIDAL ACTIVITY (% CONTROL) ABUTH [19] | PREEMERGENCE HERBICIDAL ACTIVITY (% CONTROL) SORHA [20]
CNC(=O)c1cc2c(Cl)cc(F)c(-n3c(=O)cc(C(F)(F)F)n(C)c3=O)c2o1 [Compound 274] | 95% | 95% | 100% | 90% | 100% | 100% | 100% | 100% | 100% | 100% | 100% | 90% | 90% | 95% | 100% | 60% | 90% | 100% | 100% | 100%
CN(C)C(=O)c1cc2c(Cl)cc(F)c(-n3c(=O)cc(C(F)(F)F)n(C)c3=O)c2o1 [Compound 275] | 100% | 90% | 100% | 100% | 100% | 100% | 80% | 100% | 100% | 100% | 100% | 100% | 100% | 80% | 100% | 70% | 95% | 100% | 100% | 95%
Cn1c(C(F)(F)F)cc(=O)n(-c2c(F)cc(Cl)c3[nH]c(C(F)(F)Cl)nc23)c1=O [Compound 366] | 70% | 80% | 80% | 0% | 10% | 50% | 10% | 95% | 100% | 20% | 50% | 0% | 30% | 0% | 50% | 30% | 30% | 10% | 70% | 40%
CC(C)c1nc2c(-n3c(=O)cc(C(F)(F)F)n(C)c3=O)c(F)cc(Cl)c2[nH]1 [Compound 368] | 100% | 100% | 100% | 100% | 100% | 100% | 100% | 100% | 100% | 100% | 100% | 95% | 100% | 95% | 100% | 100% | 100% | 100% | 100% | 100%
COCc1nc2c(-n3c(=O)cc(C(F)(F)F)n(C)c3=O)c(F)cc(Cl)c2[nH]1 [Compound 370] | 100% | 100% | 100% | 100% | 100% | 100% | 100% | 100% | 100% | 100% | 100% | 95% | 100% | 90% | 100% | 95% | 100% | 100% | 100% | 100%
